# Earlier results, collected in patent US20150141404A1, “NON-IONIC VESICLE FORMULATIONS OF CALCIUM CHANNEL BLOCKERS” (CONTRACT PHARMACEUTICALS LIMITED, priority 2012, published 2015).
# System: anal fissure
# Conditions: topical
compound,measurement,value
"COc1ccc([C@@H]2Sc3ccccc3N(CCN(C)C)C(=O)[C@@H]2OC(C)=O)cc1 [diltiazem, Diltiazem]",healing rates,improved
same,maximum resting pressure (MRP),reduces
